# Values of other authors as cited in patent US7326683B2, “Treatment of membrane-associated diseases and disorders using lantibiotic containing compositions” (Molichem Medicines, Inc., priority 2004, dated 2008).
# How the values were obtained:
# [1] = system: clatharin-coated vesicle; settings: clatharin-coated vesicle acidification; Stone et al., J. Biol. Chem. 259: 2701-2703 (1984)
# [2] = aspirin used after the sentinel event, atherosclerotic heart disease (ASHD)
Molecule,inhibition of the proton translocation facilitated by chloride translocation [1],decrease of risk of MI [2]
duramycin,up to 50%,–
CC(=O)Oc1ccccc1C(=O)O [aspirin],–,approximately 50%
